Laboratory results reported in patent publication US20060233705A1, “Diagnosis by determination of hyperactivity or increased expression of members of cell signaling pathways” (priority 2005, published 2006).

Assays:
lung tumors = conditions: 2.5 mg/100 g s.c. three times weekly for 20 weeks; within 52 weeks after start of injections; cited from earlier work
[1] = test system: human pulmonary adenocarcinoma cells; conditions: in vitro; by increasing the release of arachidonic acid; cited from earlier work
[2] = test system: members of the MAPK and GPCR pathways; assay: ELISA of venous blood for MAPK and GPCR pathway members in NNK-treated hamsters; format: in vivo, Syrian Golden Hamsters; conditions: blood one week after NNK 2.5 mg/100 g s.c. three times weekly for 10 weeks
Description: Syrian Golden Hamsters are injected subcutaneously with the tobacco-specific carcinogenic nitrosamine 4-(methylnitrosamino)-1-(3-pyridyl)-1-butanone (NNK) at a dosage of 2.5 mg/100 g bodyweight three times weekly for 10 weeks. […] Control hamsters are untreated. One week after the final NNK injection, approximately 250 microliters of venous blood is collected from the hamsters.
Antibodies that bind to phosphorylated or unphosphorylated members of the MAPK and GPCR pathways, including Raf, Ras, MEK, ERK, adenylate cyclase, cAMP, PKA, CREB, and PKC are purchased from commercial sources, including EMD Biosciences (San Diego, Calif.) (Raf, ERK), BD Biosciences Pharmingen (San Diego, Calif.) (Raf), Cell Signaling Technology (Beverly, Mass.) (Ras), Abgent (San Diego, Calif.) ([…]), GenWay Biotech Inc. (San Diego, Calif.) (adenylate cyclase), Abcam, Inc. (Cambridge, Mass.) (cAMP, PKA, PKC, Raf), and Upstate (Charlottesville, Va.) (CREB).
Paired antibodies for each of the above member of the MAPK and GPCR pathways are utilized as coating antibody and detection antibody in formulating an ELISA (Enzyme-Linked Immunosorbent Assay) for each of the members. […]
Briefly, a first antibody that binds to a member of the MAPK or GPCR pathway is bound to the wells on a microtiter plate. […] Then a stop solution is added to the wells and the color intensity of each well is measured using an ELISA plate reader.

[3] = test system: pulmonary adenocarcinomas; conditions: animal model; cited from earlier work

| SMILES | lung tumors developed (lung tumors) | proliferation of human pulmonary adenocarcinoma cells [1] | ELISA color intensity versus control hamsters [2] | induction of pulmonary adenocarcinomas [3] |
| --- | --- | --- | --- | --- |
| CN(CCCC(=O)c1cccnc1)N=O [NNK, 4-(methylnitrosamino)-1-(3-pyridyl)-1-butanone] | about 10 lung tumors/hamster | stimulate the proliferation | significantly higher | reproducibly induced pulmonary adenocarcinomas |
| CC(C)NCC(O)c1ccc(O)c(O)c1 (centres unmarked) [isoproterenol] | – | stimulate the proliferation | – | – |
